Assay results taken from paper PMC8587849, “Antimicrobial and Anticancer Application of Silver(I) Dipeptide Complexes” (Molecules, 2021).
Where “and” joins values, the source holds several entries; their conditions need not be identical. Equal values may be shown once. Read-outs that look alike come from different tables or passages of the source.

Experiments:
[1] = tested on: S. thypimurium TA100; test: Ames test, plate incorporation method; format: cell-based, Salmonella Typhimurium; details: positive control, 100µg
Source text: (§4) Salmonella Typhimurium TA 98 and TA 100 were obtained from the Czech Collection of Microorganisms. As a positive mutagen, 3-(5-nitro-2-furyl) acrylic acid (NFAA) was used.

[2] = tested on: S. thypimurium TA98; test: Ames test, plate incorporation method; format: cell-based, Salmonella Typhimurium; details: positive control, 100µg
Source text: as §4

[3] = tested on: Rhizopus oryzae CCM F-8284; test: Antifungal activity (filamentous fungi), macrodilution on solidified PDA; format: cell-based; details: for IC50: read-out: IC50; for MIC100: suffix s = fungistatic
Method: (§5) Cultures of bacteria (in Mueller-Hinton broth, MHB) and yeasts (in Sabouraud’s growth medium, SB) were incubated under shaking (250 rpm) at 37 °C. The growth of bacteria and yeasts was evaluated by measuring the absorbance of the growing cultures (A550) until the cultures reached the stationary growth phase. […] During culturing, the diameters of growing fungal colonies were measured at regular intervals [71, 72]. […] The final concentration of DMSO never exceeded 1.0 vol. % in the control or treated samples. […] The IC50 and MIC90 with respect to MIC80 values were evaluated from toxicity curves.

[4] = tested on: CT DNA; test: UV-Vis absorption titration with CT DNA; format: binding, calf; details: 0.01 M Tris-HCl pH 7.4; complex 7.85 × 10^−5 M
Method: UV–vis spectra were measured in 0.01 M Tris-HCl buffer (pH 7.4) using a Varian Cary 100 Bio spectrophotometer in the range of 230–320 nm and recorded at room temperature (24 °C) using a quartz cuvette of 1 cm path length. The concentration of investigated Ag(I) complexes was 7.85 × 10^−5 M. During the titration, an aliquot of buffered CT DNA solution was added to each cuvette (sample and reference) to eliminate the absorbance of DNA itself. The DNA concentration per nucleotide was determined by absorption spectroscopy using the molar absorption coefficient (6600 M^−1cm^−1) at 260 nm.

[5] = tested on: Microsporum gypseum CCM F-8342; test: Antifungal activity (filamentous fungi), macrodilution on solidified PDA; format: cell-based; details: M.gypseum; read-out: IC50 and MIC100 (class symbol)
Method: as §5

[6] = tested on: Escherichia coli (E. coli) CCM 3988; test: Antibacterial activity, macrodilution method; format: cell-based
Method: (§6) Cultures of bacteria (in Mueller-Hinton broth, MHB) and yeasts (in Sabouraud’s growth medium, SB) were incubated under shaking (250 rpm) at 37 °C. The growth of bacteria and yeasts was evaluated by measuring the absorbance of the growing cultures (A550) until the cultures reached the stationary growth phase. […] The final concentration of DMSO never exceeded 1.0 vol. % in the control or treated samples. […] The IC50 and MIC90 with respect to MIC80 values were evaluated from toxicity curves.

[7] = tested on: Staphylococcus aureus CCM 3953; test: Antibacterial activity, macrodilution method; format: cell-based; details: S. aureus
Method: as §6

[8] = tested on: HeLa; test: MTS antiproliferative assay; format: cell-based, human; details: 72 h
Method: (§1) After 72 h of incubation, 10 µL of MTS was added to each well. […] IC50 values were calculated from MTS analyses.

[9] = tested on: MCF-7; test: MTS antiproliferative assay; format: cell-based, human; details: 72 h
Method: as §1

[10] = tested on: CT DNA–HO system; test: Fluorescence competitive binding with Hoechst 33258; design: species or system calf; details: displacement of Hoechst 33258 from CT DNA; 462 nm; 10 mM Tris-HCl pH 7.4
Method: The fluorescence competitive binding studies of silver(I) complexes with Hoechst 33 258 (HO) were performed on a Varian Cary Eclipse spectrophotometer. The emission spectra of DNA–HO were measured in the range of 400–550 nm using an excitation wavelength of 343 nm with a slit width of 5 nm for the excitation and 5 nm for the emission beam. […] Ksv quenching constant was determined according to the classical Stern-Volmer Equation (1) in [63, 75]:F0/F = 1 + KSV [Q](1) where F0 and F are the fluorescence intensities in the absence and the presence of the quencher at 462 nm, KSV is the Stern-Volmer quenching constant and [Q] is the concentration of the quencher.

[11] = tested on: A.flavus; test: Antifungal activity (filamentous fungi); format: cell-based; details: read-out: IC50 and MIC100 (class symbol)
Method: as §5

[12] = tested on: Jurkat; test: MTS antiproliferative assay; format: cell-based, human; details: 72 h
Method: (§2) Cells were maintained in standard conditions with an atmosphere containing 5% CO2 at 37 °C.
as §1

[13] = tested on: MDA-MB-231; test: MTS antiproliferative assay; format: cell-based, human; details: 72 h
Method: as §2, §1

[14] = tested on: BLM; test: MTS antiproliferative assay; format: cell-based, human; details: BLM; MTS, 72 h
Method: as §2, §1

[15] = tested on: HCT116; test: MTS antiproliferative assay; format: cell-based, human; details: 72 h
Method: as §2, §1

[16] = tested on: Candida albicans SC 5314; test: Antifungal activity (yeast), macrodilution method; format: cell-based; details: C. albicans
Method: as §5

[17] = tested on: Alternaria alternata CCM F-128; test: Antifungal activity (filamentous fungi), macrodilution on solidified PDA; format: cell-based; details: A. alternata; for IC50: read-out: IC50; for MIC100: suffix s = fungistatic
Method: as §5

[18] = tested on: S. aureus biofilm; test: Influence on S. aureus biofilm formation, crystal violet staining; format: cell-based; details: for A570 (biofilm, crystal violet): control A570 = 0.47; for I: biofilm intensity: control strong
Method: The biofilm was qualified by the crystal violet staining method. Briefly, overnight cultures of bacteria S.aureus (in MHB) and yeasts C.parapsislosis (in SB) were prepared. The fresh prepared growth media MHB and SB were inoculated with the overnight culture for a final concentration of 5 × 10^6 cells mL^−1. The microbial biofilm was formed in 96-well microplates for adherent cells. […] Prepared cultures were incubated for 2 h at 37 °C. […] The treatment with DMSO (solvent) alone served as a control. The inoculated microplates were incubated at 37 °C for the next 46 h. […] Microplates with mature biofilm were decanted and washed using 200 μL of saline solution. The plate was left for 15 min to dry completely at laboratory temperature. Then, 110 μL of 0.4% crystal violet dye was added to each well, and the plate was incubated for 15 min at laboratory temperature. After the decantation, the plate was washed 3 times with 200 μL of saline solution. Then, 200 μL of 96% ethanol was added. The microplate was left to incubate for 15 min at laboratory temperature. After the transfer of the well content to a clean microplate, the absorbance (570 nm) of released crystal violet (proportionate to biofilm cell density) was measured,, and the values were evaluated as weak biofilm formation A570 <0.1; 0.199>, medium biofilm formation A570 <0.2; 0.3>, strong biofilm formation A570 <0.301; 0.999>, or very strong biofilm formation A570 ≥ 1.00.

[19] = tested on: Candida parapsilosis ATCC 22019; test: Antifungal activity (yeast), macrodilution method; format: cell-based; details: C. parapsilosis
Method: as §6

[20] = tested on: methicillin-resistant Staphylococcus aureus L12; test: Antibacterial activity, macrodilution method; format: cell-based; details: S. aureus L12 (MRSA)
Method: as §6

[21] = tested on: BJ-5ta; test: MTS assay on fibroblasts; format: cell-based; details: BJ-5ta human skin fibroblasts, 72 h
Method: as §1

[22] = tested on: MDA-MB-231 cells; test: Cell cycle analysis by flow cytometry; format: cell-based, human; details: treated with IC50
Method: (§3) Prior to each analysis, cells were washed in PBS, followed by resuspending in staining solution (0.5 mg/mL ribonuclease A, 0.2% final concentration Triton X-100, propidium iodide 0.025 mg/mL in 500 µL PBS) (all Sigma Aldrich), and incubated for 30 min at room temperature in the dark. For analysis of stained cells, a BD FACSCalibur flow cytometer (BD Bio-sciences) was used. A minimum of 1 × 10^4 events were analysed per analysis.

[23] = tested on: BLM cells; test: Cell cycle analysis by flow cytometry; format: cell-based, human; details: treated with IC50
Method: as §3

[24] = tested on: HCT116 cells; test: Cell cycle analysis by flow cytometry; format: cell-based, human; details: treated with IC50
Method: as §3

[25] = tested on: Jurkat cells; test: Cell cycle analysis by flow cytometry; format: cell-based, human; details: treated with IC50
Method: as §3

[26] = tested on: Staphylococcus epidermidis CCM 7221; test: Antibacterial activity, macrodilution method; format: cell-based; details: S.epidermidis
Method: as §6

[27] = tested on: MCF-7 cells; details: cited from earlier work
[28] = tested on: MCF-7; design: method as in PMID 33461021; details: cited from earlier work
[29] = tested on: MDA-MB-231; design: method as in PMID 33461021; details: cited from earlier work

With `O=C(O)C=Cc1ccc([N+](=O)[O-])o1` [NFAA, 3-(5-nitro-2-furyl) acrylic acid] the “Revertants CFU No. ± SD” value [1] was 1352± 124 CFU and the “Revertants CFU No. ± SD” value [2] was 28 ± 2 CFU.

With [Ag2(HGlyAsp)(NO3)]n [AgGlyAsp] the IC50 [3] was 73 µM, the MIC100 [3] was 100 µM and the Hypochromism [4] was 30% and 30.8%. The “Δλmax (red shift on addition of CT DNA)” value [4] was 13 nm, the IC50 [5] was greater than 100 µM and the IC50 [6] was 17 µM. It also gave an MIC90 [6] of 23 µM, an IC50 [7] of 51 µM and an MIC90 [7] of 96 µM. The IC50 [8] was 33.3 µM, the IC50 [9] was 33.8 µM and the “KSV (Stern-Volmer quenching constant)” value [10] was 8.33 ± 0.07 × 10^4 M^−1. For the same compound, the IC50 [11] was greater than 100 µM, the IC50 [12] was 36.8 µM and the IC50 [13] was 33.6 µM. For the same compound, the IC50 [14] was 35.6 µM, the IC50 [15] was 35.5 µM and the IC50 [16] was 73 µM. It also gave an MIC80 [16] of 100 µM, an IC50 [17] of 35 µM and an MIC100 [17] greater than 100 µM. For the same compound, the “A570 (biofilm, crystal violet)” value ([18]; complex concentration 5 µM) was 0.36, the “I: biofilm intensity” value ([18]; complex concentration 5 µM) was “strong (strong biofilm formation A570 <0.301; 0.999>)” and the “A570 (biofilm, crystal violet)” value ([18]; complex concentration 10 µM) was 0.35. For the same compound, the “I: biofilm intensity” value ([18]; complex concentration 10 µM) was “strong (strong biofilm formation A570 <0.301; 0.999>)”, the “A570 (biofilm, crystal violet)” value ([18]; complex concentration 50 µM) was 0.24 and the “A570 (biofilm, crystal violet)” value ([18]; complex concentration 100 µM) was 0.25. The “I: biofilm intensity” value ([18]; complex concentration 100 µM) was “medium (medium biofilm formation A570 <0.2; 0.3>)”, the IC50 [19] was 50 µM and the MIC80 [19] was 100 µM. For the same compound, the IC50 [20] was 31 µM, the MIC90 [20] was 49 µM and the IC50 [21] was 57.6 µM. The “cells in G2/M” value ([22]; 24 h) was 30.6%, the “cells in G2/M” value ([22]; 48 h) was 25.8 ± 0.5% and the “cells in S” value ([22]; 48 h) was 10.6 ± 1.9%. For the same compound, the “cells in G2/M” value ([22]; 72 h) was 9.6 ± 1.2%, the “cells in S” value ([22]; 72 h) was 7.1 ± 2.4% and the “cells in G2/M” value ([23]; 24 h) was 14.8 ± 0.2%. For the same compound, the “cells in S” value ([23]; 24 h) was 13.8 ± 3.0%, the “cells in Sub-G0” value ([23]; 24 h) was 51.7% and the “cells in G2/M” value ([23]; 48 h) was 10.9 ± 2.8%. The “cells in S” value ([23]; 48 h) was 10.8 ± 2.5%, the “cells in Sub-G0” value ([23]; 48 h) was 56.1% and the “cells in Sub-G0” value ([23]; 72 h) was 59.3%. For the same compound, the “cells in G2/M” value ([24]; 24 h) was 16.8 ± 2.4%, the “cells in S” value ([24]; 24 h) was 16.3 ± 2.3% and the “cells in G2/M” value ([24]; 48 h) was 11.7 ± 3.4%. The “cells in S” value ([24]; 48 h) was 10.3 ± 1.3%, the “cells in G2/M” value ([25]; 24 h) was 15.5 ± 2.7% and the “cells in S” value ([25]; 24 h) was 14.0 ± 0.6%. The “cells in G2/M” value ([25]; 48 h) was 6.3 ± 0.3%, the “cells in S” value ([25]; 48 h) was 12.4 ± 1.1% and the IC50 [26] was 25 µM. The MIC90 [26] was 50 µM.

In the case of [Ag3(Gly)2NO3]n, the “cells in sub-G0 population” value ([27]; MFC-7 cancer cells, Control 9.8%, ref Banti et al.) is given as 42.7%, the “cells in S phase” value [27] is given as 24.1% and the IC50 [28] is given as 2.6 ± 0.1 µM. For the same compound, the IC50 [29] was 2.7 ± 0.2 µM.

In the case of [Ag(GlyGly)]n(NO3)n [AgGlyGly], the IC50 [3] is reported as 30 µM, the MIC100 [3] is reported as 50 µM and the Hypochromism [4] is reported as 20.1%. The “Δλmax (red shift on addition of CT DNA)” value [4] was 22 nm, the IC50 [5] was greater than 100 µM and the IC50 [6] was 6 µM. The MIC90 [6] was 10 µM, the IC50 [7] was 12 µM and the MIC90 [7] was 22 µM. The IC50 [8] was 38.3 µM, the IC50 [9] was 9 µM and the “KSV (Stern-Volmer quenching constant)” value [10] was 4.51 ± 0.05 × 10^4 M^−1. The IC50 [11] was greater than 100 µM, the IC50 [12] was 14.8 µM and the IC50 [13] was 13 µM. It also gave an IC50 [14] of 21.2 µM, an IC50 [15] of 34.5 µM and an IC50 [16] of 70 µM. It also gave an MIC80 [16] of 100 µM, an IC50 [17] of 71 µM and an MIC100 [17] greater than 100 µM. The “A570 (biofilm, crystal violet)” value ([18]; complex concentration 5 µM) was 0.72, the “I: biofilm intensity” value ([18]; complex concentration 5 µM) was “strong (strong biofilm formation A570 <0.301; 0.999>)” and the “A570 (biofilm, crystal violet)” value ([18]; complex concentration 10 µM) was 0.39. For the same compound, the “I: biofilm intensity” value ([18]; complex concentration 10 µM) was “strong (strong biofilm formation A570 <0.301; 0.999>)”, the “A570 (biofilm, crystal violet)” value ([18]; complex concentration 25 µM) was 0.26 and the “A570 (biofilm, crystal violet)” value ([18]; complex concentration 50 µM) was 0.22. For the same compound, the “A570 (biofilm, crystal violet)” value ([18]; complex concentration 100 µM) was 0.28, the “I: biofilm intensity” value ([18]; complex concentration 100 µM) was “medium (medium biofilm formation A570 <0.2; 0.3>)” and the IC50 [19] was 30 µM. For the same compound, the MIC80 [19] was 70 µM, the IC50 [20] was 15 µM and the MIC90 [20] was 38 µM. The IC50 [21] was 47.1 µM, the “cells in G2/M” value ([22]; 72 h) was 14.9 ± 0.1% and the “cells in S” value ([22]; 72 h) was 14.4 ± 0.1%. The “cells in G2/M” value ([23]; 48 h) was 32.7 ± 2.4%, the “cells in S” value ([23]; 48 h) was 15.3 ± 1.5% and the “cells in G2/M” value ([24]; 72 h) was 7.1 ± 2.3%. For the same compound, the “cells in S” value ([24]; 72 h) was 9.8 ± 0.1%, the “cells in G2/M” value ([25]; 72 h) was 8.9 ± 0.1% and the “cells in S” value ([25]; 72 h) was 11.1 ± 0.8%. The IC50 [26] was 10 µM and the MIC90 [26] was 20 µM.
